For one assay, the target named is PIK3CA (UniProt P42336). As to the kind of experiment: PIK3-alpha Kinase Inhibition.
The next assay concerns the target PIK3CB (UniProt P42338). As to the kind of experiment: PIK3-beta Kinase Inhibition.
Another assay addresses PIK3CD (UniProt O00329). As to the kind of experiment: PIK3-delta Kinase Inhibition.
Another assay deals with PIK3CG (UniProt P48736). As to the kind of experiment: PIK3-gamma Kinase Inhibition.

Among the data in the Kinase Knowledgebase extract (Sharma et al. 2016) are IC50 and IC80 values, retold here.

In general, IC50 refers to the concentration at which inhibition is half-maximal. A higher IC50 goes with weaker potency. One may read the IC80 as the concentration needed for an effect of 80%. A higher IC80 goes with weaker potency.

Chain of PIK3CB (P42338 whole entry, looked up): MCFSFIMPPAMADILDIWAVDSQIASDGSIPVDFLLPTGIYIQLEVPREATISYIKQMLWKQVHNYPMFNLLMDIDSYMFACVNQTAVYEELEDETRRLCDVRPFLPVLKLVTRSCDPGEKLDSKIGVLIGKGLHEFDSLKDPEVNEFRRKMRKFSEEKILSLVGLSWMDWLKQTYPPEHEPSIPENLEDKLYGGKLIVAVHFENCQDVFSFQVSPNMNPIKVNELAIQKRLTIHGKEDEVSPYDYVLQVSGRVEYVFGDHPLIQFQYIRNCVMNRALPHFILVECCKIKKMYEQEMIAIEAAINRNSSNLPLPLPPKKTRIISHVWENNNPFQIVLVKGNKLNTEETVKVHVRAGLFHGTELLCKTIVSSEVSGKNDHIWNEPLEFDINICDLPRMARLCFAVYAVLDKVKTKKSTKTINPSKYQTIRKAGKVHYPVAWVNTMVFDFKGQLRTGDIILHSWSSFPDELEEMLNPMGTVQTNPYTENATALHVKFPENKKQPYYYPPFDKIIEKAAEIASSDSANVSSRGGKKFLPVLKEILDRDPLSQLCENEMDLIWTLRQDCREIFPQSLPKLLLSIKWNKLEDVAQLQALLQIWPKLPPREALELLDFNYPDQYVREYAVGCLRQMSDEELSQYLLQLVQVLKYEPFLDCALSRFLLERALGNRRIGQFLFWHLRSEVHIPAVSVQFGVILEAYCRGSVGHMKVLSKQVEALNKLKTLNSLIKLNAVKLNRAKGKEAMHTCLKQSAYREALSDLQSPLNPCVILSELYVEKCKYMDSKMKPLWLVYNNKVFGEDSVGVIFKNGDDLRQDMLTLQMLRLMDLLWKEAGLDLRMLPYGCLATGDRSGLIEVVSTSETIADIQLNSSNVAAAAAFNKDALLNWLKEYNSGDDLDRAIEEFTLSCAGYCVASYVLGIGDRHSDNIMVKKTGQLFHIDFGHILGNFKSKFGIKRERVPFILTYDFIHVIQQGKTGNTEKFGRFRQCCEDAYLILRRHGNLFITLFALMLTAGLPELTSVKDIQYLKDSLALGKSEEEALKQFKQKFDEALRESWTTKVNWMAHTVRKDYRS
Chain of PIK3CD (O00329 whole entry, looked up): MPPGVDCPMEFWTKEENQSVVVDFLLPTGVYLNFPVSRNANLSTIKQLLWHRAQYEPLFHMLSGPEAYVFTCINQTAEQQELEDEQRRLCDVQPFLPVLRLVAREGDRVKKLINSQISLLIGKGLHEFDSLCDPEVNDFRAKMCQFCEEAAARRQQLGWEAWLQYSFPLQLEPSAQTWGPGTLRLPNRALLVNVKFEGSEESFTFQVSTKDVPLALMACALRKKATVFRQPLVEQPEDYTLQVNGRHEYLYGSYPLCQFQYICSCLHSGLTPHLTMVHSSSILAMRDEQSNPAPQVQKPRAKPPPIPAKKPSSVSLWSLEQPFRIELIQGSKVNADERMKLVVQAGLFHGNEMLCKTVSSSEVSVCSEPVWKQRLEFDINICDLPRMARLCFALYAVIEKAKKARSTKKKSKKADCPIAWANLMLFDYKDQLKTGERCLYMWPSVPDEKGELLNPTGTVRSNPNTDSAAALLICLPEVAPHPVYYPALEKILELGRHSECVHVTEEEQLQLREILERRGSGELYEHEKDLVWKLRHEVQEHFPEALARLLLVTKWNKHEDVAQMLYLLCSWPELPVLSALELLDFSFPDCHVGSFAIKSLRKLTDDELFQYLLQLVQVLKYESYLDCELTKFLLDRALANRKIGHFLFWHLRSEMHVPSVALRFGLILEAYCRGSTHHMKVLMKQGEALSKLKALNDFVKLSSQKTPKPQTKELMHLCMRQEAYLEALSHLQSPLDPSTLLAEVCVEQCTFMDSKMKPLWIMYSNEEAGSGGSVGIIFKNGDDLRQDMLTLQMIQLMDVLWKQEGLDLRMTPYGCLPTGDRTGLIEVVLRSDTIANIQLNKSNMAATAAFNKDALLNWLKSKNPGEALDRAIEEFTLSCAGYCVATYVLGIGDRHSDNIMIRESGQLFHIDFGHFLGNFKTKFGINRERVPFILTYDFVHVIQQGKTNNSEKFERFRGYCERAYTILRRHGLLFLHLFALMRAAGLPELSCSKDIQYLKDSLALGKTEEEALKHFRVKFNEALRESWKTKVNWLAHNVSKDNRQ
Chain of PIK3CA (P42336 whole entry, looked up): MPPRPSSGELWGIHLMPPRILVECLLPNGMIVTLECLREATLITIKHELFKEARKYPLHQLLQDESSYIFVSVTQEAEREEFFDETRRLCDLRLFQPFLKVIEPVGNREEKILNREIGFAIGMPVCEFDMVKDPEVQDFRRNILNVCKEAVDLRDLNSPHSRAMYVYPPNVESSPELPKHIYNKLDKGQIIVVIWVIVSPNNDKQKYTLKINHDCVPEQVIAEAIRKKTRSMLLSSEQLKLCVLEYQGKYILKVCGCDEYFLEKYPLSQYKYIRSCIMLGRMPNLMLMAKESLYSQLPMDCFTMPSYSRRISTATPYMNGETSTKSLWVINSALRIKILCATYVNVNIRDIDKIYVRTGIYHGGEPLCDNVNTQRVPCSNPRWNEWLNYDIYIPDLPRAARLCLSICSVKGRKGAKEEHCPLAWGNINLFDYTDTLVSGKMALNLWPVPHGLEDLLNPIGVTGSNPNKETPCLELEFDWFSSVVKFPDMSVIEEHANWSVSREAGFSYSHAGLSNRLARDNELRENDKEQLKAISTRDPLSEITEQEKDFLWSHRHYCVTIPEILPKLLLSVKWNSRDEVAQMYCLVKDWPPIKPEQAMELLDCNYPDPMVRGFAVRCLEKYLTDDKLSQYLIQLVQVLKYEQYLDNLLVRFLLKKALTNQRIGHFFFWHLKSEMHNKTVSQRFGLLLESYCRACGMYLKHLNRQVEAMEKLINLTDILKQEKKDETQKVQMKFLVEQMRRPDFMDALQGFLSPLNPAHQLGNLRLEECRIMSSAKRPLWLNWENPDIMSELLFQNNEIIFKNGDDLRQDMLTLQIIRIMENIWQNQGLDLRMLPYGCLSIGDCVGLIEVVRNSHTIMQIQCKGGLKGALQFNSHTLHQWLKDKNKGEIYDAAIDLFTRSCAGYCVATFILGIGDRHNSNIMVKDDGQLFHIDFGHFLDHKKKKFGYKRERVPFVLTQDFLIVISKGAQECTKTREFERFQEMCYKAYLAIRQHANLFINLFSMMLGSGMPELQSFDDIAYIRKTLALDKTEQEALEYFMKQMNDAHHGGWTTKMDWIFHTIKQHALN
Chain of PIK3CG (P48736 whole entry, looked up): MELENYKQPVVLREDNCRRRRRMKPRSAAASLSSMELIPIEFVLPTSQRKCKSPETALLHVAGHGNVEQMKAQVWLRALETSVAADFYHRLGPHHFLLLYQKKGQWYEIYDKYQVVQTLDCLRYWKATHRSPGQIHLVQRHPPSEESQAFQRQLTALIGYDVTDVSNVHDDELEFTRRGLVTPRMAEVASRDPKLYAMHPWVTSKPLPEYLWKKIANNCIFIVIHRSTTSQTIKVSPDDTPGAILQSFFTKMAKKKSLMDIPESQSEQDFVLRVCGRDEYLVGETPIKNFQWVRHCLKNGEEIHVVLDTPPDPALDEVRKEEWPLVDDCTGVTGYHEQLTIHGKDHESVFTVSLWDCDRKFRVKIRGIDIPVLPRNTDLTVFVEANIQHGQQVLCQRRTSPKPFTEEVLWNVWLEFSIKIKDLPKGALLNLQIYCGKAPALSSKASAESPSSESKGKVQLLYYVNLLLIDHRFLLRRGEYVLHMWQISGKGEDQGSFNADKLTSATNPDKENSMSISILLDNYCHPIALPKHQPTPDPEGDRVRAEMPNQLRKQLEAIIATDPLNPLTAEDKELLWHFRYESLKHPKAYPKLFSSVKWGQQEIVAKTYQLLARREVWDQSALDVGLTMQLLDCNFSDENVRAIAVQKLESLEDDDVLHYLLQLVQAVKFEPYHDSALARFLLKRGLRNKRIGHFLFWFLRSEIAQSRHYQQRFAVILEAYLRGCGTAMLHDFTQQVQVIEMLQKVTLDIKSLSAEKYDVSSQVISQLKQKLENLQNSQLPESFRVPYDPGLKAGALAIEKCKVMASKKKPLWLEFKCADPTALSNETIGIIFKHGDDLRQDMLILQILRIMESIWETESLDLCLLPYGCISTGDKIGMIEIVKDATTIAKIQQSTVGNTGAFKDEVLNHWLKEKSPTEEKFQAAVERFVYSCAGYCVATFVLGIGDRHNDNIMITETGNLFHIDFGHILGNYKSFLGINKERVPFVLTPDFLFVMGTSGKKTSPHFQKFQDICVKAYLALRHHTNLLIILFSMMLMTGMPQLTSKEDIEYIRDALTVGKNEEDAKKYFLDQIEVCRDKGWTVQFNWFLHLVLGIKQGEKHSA

`CC(=O)c1ccc(N2CCOCC2)cc1O`: the figures for the 50% inhibitory concentration (IC50) against PIK3CA, against PIK3CD and at PIK3CG were 16 µM, 3.8 µM and 10 µM, respectively. The concentration for an effect of 80% (IC80) on PIK3CB came out at 0.99 µM.

As for `Cc1cc(Nc2ccccc2C)c2nc(N3CCOCC3)cc(=O)n2c1`, the IC50 was 9 µM on PIK3CA, 3.3 µM at PIK3CB, 3.8 µM on PIK3CD and greater than 100 µM on PIK3CG.

`COc1ccccc1Nc1cc(C)cn2c(=O)cc(N3CCOCC3)nc12`: the concentration for half-maximal inhibition (IC50) against PIK3CA is 50 µM; against PIK3CB, 20 µM; against PIK3CD, 10 µM; at PIK3CG it was greater than 100 µM.

On PIK3CB, `O=Cc1ccc(N2CCOCC2)cc1O` displayed a half-maximal inhibitory concentration (IC50) of 2.8 µM.

With `Cc1cc(NCc2ccccc2C)c2nc(N3CCOCC3)cc(=O)n2c1`, the half-maximal inhibitory concentration (IC50) at PIK3CB was found to be 0.11 µM. Against the preceding compound, the IC50 is about 25-fold lower.

As to `Cc1cc(Nc2ccc(C)c(C)c2)c2nc(N3CCOCC3)cc(=O)n2c1`, the IC50 against PIK3CA was 10 µM; on PIK3CB, 14 µM; against PIK3CD, 5 µM; at PIK3CG, greater than 100 µM.

As to `Cc1ccccc1Oc1cccc2c(=O)cc(N3CCOCC3)[nH]c12`, the half-maximal inhibitory concentration (IC50) at PIK3CA turned out to be 61 µM; against PIK3CB it was 0.13 µM; against PIK3CD it was 0.63 µM; on PIK3CG, 100 µM.

On PIK3CD, `O=c1cc(N2CCOCC2)oc2c(-c3ccccc3)cccc12` had a concentration for half-maximal inhibition (IC50) of 6 µM.

As for `Cc1cc(Br)c2nc(N3CCOCC3)cc(=O)n2c1`, the 50% inhibitory concentration (IC50) was 58 µM on PIK3CA, 9.9 µM on PIK3CB, 8.5 µM against PIK3CD and greater than 100 µM against PIK3CG.

Turning to `Nc1cc(N2CCOCC2)ccc1[N+](=O)[O-]`, the IC50 against PIK3CA was determined as 100 µM; against PIK3CB, 23 µM; at PIK3CD it was 24 µM; against PIK3CG, 100 µM.

For `O=C(CCl)c1ccc(N2CCOCC2)cc1O`, the IC50 was found to be 30 µM against PIK3CA, 4.8 µM at PIK3CD and 70 µM on PIK3CG.

As for `Cc1cc(-c2cccc(N)c2)c2nc(N3CCOCC3)cc(=O)n2c1`, the IC50 against PIK3CA was found to be 14 µM; on PIK3CB, 18 µM; on PIK3CD, 6.9 µM; on PIK3CG, 38 µM.

For the compound `O=C(c1ccccc1)c1ccc(N2CCOCC2)cc1O`, on PIK3CB, the 50% inhibitory concentration (IC50) is 3.7 µM.

In the case of `O=c1cc(N2CCOCC2)oc2ccccc12`, the IC50 against PIK3CA was determined as 45 µM; at PIK3CB, 7.5 µM; against PIK3CD, 13 µM; against PIK3CG, 100 µM.

On to `Cc1cc(NCc2ccccc2)c2nc(N3CCOCC3)cc(=O)n2c1`, for which the half-inhibitory concentration (IC50) turned out to be 8.1 µM against PIK3CA, 0.16 µM against PIK3CB, 0.15 µM against PIK3CD and 10 µM against PIK3CG.

Take `Cc1cc(Nc2cccc(C)c2C)c2nc(N3CCOCC3)cc(=O)n2c1`: the IC50 at PIK3CA is 6.2 µM; on PIK3CB, 3.5 µM; against PIK3CD it was 3.3 µM; against PIK3CG it was 100 µM.

In the case of `Cc1cccc(CNc2cc(C)cn3c(=O)cc(N4CCOCC4)nc23)c1`, the half-inhibitory concentration (IC50) against PIK3CA was determined as 1.8 µM; against PIK3CB, 0.99 µM; against PIK3CD, 0.39 µM; against PIK3CG it was 25 µM.
